Results as given in article PMC9435431, “Novel chemical entities inhibiting Mycobacterium tuberculosis growth identified by phenotypic high-throughput screening” (Scientific Reports, 2022).
Converted amounts (≈) assume the structure as drawn. “Also recorded” adds a separate entry of the source. Where two headings read alike, the source gives them in different places.

Tests used:
[1] = system: wild-type M. tuberculosis; test: microbe, parasite or virus in culture; format: cell-based, Mycobacterium tuberculosis; settings: for MIC: Mycobacterium tuberculosis, read-out: MIC
[2] = in vitro; format: in vitro ADME, human; settings: human, microsomes
Procedure: (§1) Compounds (0.5 µM) were incubated with 0.25 mg/mL liver microsomal proteins at pH 7.4 at 37 °C. Reactions were initiated with […] and samples taken at 0, 5, 10, 15, 20 and 30 min. The reaction was stopped by addition of 95% ACN/5% MeOH containing an internal standard. Samples were combined in compound groups of six pre-sorted by mono molecular weight and analyzed by LC/MS/MS. The peak area ratios (analyte peak area/IS peak area) were converted to % remaining using the area ratio at time 0 as 100%. The. half-life (T ½) and intrinsic clearance (mCLint) were calculated.

[3] = in vitro; format: in vitro ADME; settings: mouse, microsomes, pH 7.4
Procedure: as §1

[4] = Critical aggregation concentration; format: physicochemical
[5] = mouse, in vivo
[6] = in vivo; settings: female, Balb/c, mouse; for AUC: po, 30 mg/kg
[7] = in vitro; settings: PAMPA

Row | SMILES | MIC ([1]; 120 h) [µM] | MIC [1] [µM] | CLint scaled at 0.5 µM ([2]; pH 7.4, human Clint) [mL/min/kg] | CLint scaled at 0.5 µM ([2]; pH 7.4, in vitro human unbound microsomal clearance Clint,u) [mL/min/kg] | CLint scaled at 0.5 µM [3] [mL/min/kg] | critical aggregation concentration [4] [µM] | Oral AUC ([5]; female, Balb/c, po, 30 mg/kg) [ng·h/mL] | AUC [6] [ng·h/mL] | Papp [7] [×10⁻⁶ cm/s] | anti-tubercular activity (in words) [1] | absorption (in words) [5] | half-life ([6]; iv) [min]
1 | O=C(NCCc1cc(Br)c(O)c(Br)c1)C1(c2ccccc2)CCC1 [PCB-2, N-(3,5-dibromo-4-hydroxyphenethyl)-1-phenylcyclobutane-1-carboxamide] | 3.4 ± 0.6 (≈ 1.54 µg/mL) | 3.4 (≈ 1.54 µg/mL) | 427 | 593 | 1920 | 3.3 | 58 | 58 | 87 | – | – | –
2 | O=C(NCCc1cc(Br)c(O)c(Br)c1)C1(c2ccc(F)cc2)CCC1 [PCB-31, N-(3,5-dibromo-4-hydroxyphenethyl)-1-(4-fluorophenyl)cyclobutane-1-carboxamide] | 0.94 ± 0.23 (≈ 0.443 µg/mL) | – | 128 | – | 527 | – | – | 259 | – | good anti-TB activity; also recorded: sub-micromolar | solubility-limited absorption | 12
